Patent US5852003A, “Drug and pharmaceutical composition for the treatment of muscles” (Societe Valbiofrance, priority 1994, dated 1998)
“Also recorded” adds a separate entry of the source.

Columns and labels:
FGF = assay: semi-quantitative evaluation of FGF protection against trypsin, densitometry of radio-labelled FGF; assay type: biochemical; conditions: FGF + trypsin + polymer; radio-labelled FGF found compared to quantity deposited
Experimental: As described above, a constant quantity of radioactive FGF is incubated under various conditions. After autoradiography of the reaction products, the non degraded quantity of radioactive FGF is quantified by densitometry. The values correspond to the percentage of radio-labelled FGF found, compared to the quantity deposited at the start of reaction (Table 5).

EDL muscles [1] = assay: regeneration of skeletal muscle after deinnervation followed by crushing; assay type: in vivo, Wistar rats; conditions: for Ratio regenerated/ contralateral intact (muscle weight): 10 μg injected after deinnervation and crushing; for % ratio treated/ ratio degenerated: 10 μg injected, PBS-treated muscle = 100
Experimental: The protocol is exactly the same as that described in Example 4 but the crushing of the muscle is preceded by section of the motor nerve at the entrance of the muscle.
The substances are in saline phosphate buffer solution (PBS).
Injection takes place after deinnervation and crushing , using a 50 μl microsyringe equipped with a flexible needle 60 mm in length and 0.4 mm in diameter. Two injections are carried out at an interval of 2 min. The volume injected is therefore 100 μl. The sucrase […] was supplied free of charge by D. Bar Shalom Bulk Medic, Denmark.
After sacrifice of the animal, the EDL muscles of the treated paw and the contralateral paw are weighed. Since individual variations in the weight of normal muscles in animals of the same age can reach 20%, the results were standardized by calculating the ratio of the treated muscle to its contralateral intact control.
This ratio was considered to be 100% for the muscles treated by PBS alone. The degree of regeneration of muscles treated by the different substances was calculated in % of the muscle injected by PBS.

coagulation = assay: anticoagulant activity
FGF2 = assay: protection of FGF2 against thermal degradation, activity on CCL39 cells; assay type: cell-based; conditions: 20 μg heparin, 10 μg mesoglycan or sulodexide; 20° C. and 37° C. for 1, 7, 15, 30 days
Experimental: (§1) (a) and 37° C. (b) for 1, 7, 15, 30 days. The measurement of the biological activity presented in abscissa corresponds to the stimulation unit values (ED50) of the incorporation of tritiated thymidine in CCL39 cells.
(§2) In these experiments, the FGF 1 or 2 is used at a dose corresponding to the effective dose (called ED50) in order to induce a stimulation of the biological activity of 50% of the dose inducing the maximum stimulation. The biological activity is measured by the ability to induce an increase of the incorporation of tritiated thymidine in the cells according to protocols extensively described in numerous publications such as the previously mentioned publication by Tardieu et coll. and also in French Patent 2 644 066. […] In addition to this ability to potentialize the biological activity of the FGFs, the HBGFPPs protect the FGFs against thermal degradations and the inactivation induced by the proteolytic action of trypsin (FIGS. 3 to 5). Similarly, these HBGFPPs protect FGF1 and 2 against an inactivation induced by the proteolytic activity of trypsin (5A and 5B).

FGF1 = assay: protection of FGF1 against thermal degradation, activity on CCL39 cells; assay type: cell-based; conditions: 20 μg heparin, 10 μg mesoglycan or sulodexide; 20° C. and 37° C. for 1, 7, 15, 30 days
Experimental: as §1, §2

leukocytic elastase [2] = assay: inhibition of leukocytic elastase activity; assay type: biochemical; conditions: 37° C., pH 8, elastase 8.3 nM, 0.10 mM MeO-Suc-Ala-Ala-Pro-Val-pNA
Experimental: The purified leukocytic elastase was obtained by Elastin Products Co (Owenville, Mo., U.S.A.) and the plasmin from SIGMA.
The enzymes under consideration are placed in solution in a 100 mM Tris-HCL buffer, pH 8 for the elastase and pH 7.4 for the plasmin, in the presence of 0.02% sodium azide and 0.01% Triton X100 for the plasmin. The substrate and enzyme concentrations are: 0.10 mM MeO-Suc-Ala-Ala-Pro-Val-pNA (paranitroanilide)for the elastase at 8.3 nM, and 0.20 mM dVal-Leu-dLys-pNA for the plasmin at 77 nM. The IC50 is determined for each of the conditions.
Batch EM5 corresponds to a T10 dextran of […]. The intermediate products of synthesis are identified by the symbols given above with an index number specifying the number of each substitution reaction.

FGF 2 = assay: potentialization of FGF 2 biological activity, tritiated thymidine incorporation in CCL39 cells; assay type: cell-based
Description: (§3) The cells used in this example are CCL39 cells from the American Tissue Culture Collection. The conditions concerning culture and the measurement test of FGF biological activity are the same as those described in the publication by Tardieu and coll. in the Journal of Cellular Physiology, 1992. The FGF growth factors used are the FGF 1 and FGF 2 recombinant forms.
as §2

125I-FGF1 = assay: protection of 125I-FGF1 against proteolytic degradation by trypsin, gel autoradiography; assay type: biochemical; conditions: 37° C., FIG. 5A
Experimental: (§4) Proteolytic digestion was carried out at 37° C. and the samples were separated by 18% polyacrylamide gel electrophoresis. The gels are dried and autoradiographed. The first track contains the ^125 I-FGF1 on its own.

leukocytic elastase [3] = conditions: cited from earlier work
125I-FGF2 = assay: protection of 125I-FGF2 against proteolytic degradation by trypsin, gel autoradiography; assay type: biochemical; conditions: 37° C., FIG. 5B
Experimental: as §4
The arrangement of the tracks is identical to that presented for the ^125 I-FGF1 in FIG. 5A.

FGF 1 = assay: potentialization of FGF 1 biological activity, tritiated thymidine incorporation in CCL39 cells; assay type: cell-based
Description: as §3, §2

beta TGF = molecular target: T1, beta TGF (Homo sapiens, UniProt P01137); assay: protection of beta TGF against degradation by trypsin, beta TGF activity read on CCL64 cells; assay type: cell-based; conditions: for % inhibiting activity of the incorporation of tritiated thymidine in CCL64 cells: 37° C. 10 min, dilution 50 times
T1 construct: from tissue; host or cells: human blood platelets
Experimental: In order to measure the capacity of certain CMDBSs to interact with members of the beta TGF family and, by means of this interaction, to protect the beta TGFs, a grading test was devised.
The beta 1 TFG is prepared from human blood platelets according to a protocol described in numerous publications (for example Growth factors and their receptors, 1992, vol 1 pp 419-472, written by A. Roberts and M. Sporn, edited by A. Roberts and M. Sporn, and published by Springer Verlag Berlin) and are commonly used by persons of ordinary skill in the art. The beta TGF biological activity test used in this example is that of the inhibition of CCL64 cells (from the American Tissue Culture Collection). This inhibition is measured by the ability of the beta TGF to inhibit the incorporation of tritiated thymidine in a dose dependent manner in these CCL64 cells stimulated by the FGF or by fetal calf serum according to the protocol described by Van Zolen in Progress in Growth Factor Research, 1990, 2, pp 131 to 152.
Two doses of beta TGF are used, one corresponding to the 50% inhibition capacity of the incorporation of tritiated thymidine (defined as the inhibiting activity unit) and the other corresponding to the 100% inhibition capacity.
The final volume of the incubated solution is adjusted to 1 ml and incubation is carried out at 37° C. for a varying length of time (10 minutes in the example described (Table 1)).
20 μl samples of are taken from each of the incubation reactions and added to CCL64 cells cultivated in 24-well plates, each well containing milliliter of culture medium according to the aforementioned protocol described by E. Zohlen. In these conditions, the final concentration of beta TGF per well is 1 ng/ml.
The incubation mixture contained 50 ng of beta TGF (in 0.1% bovine serum albumin) and trypsin (500 μg). Mesoglycan or sulodexide or dextran sulfate or dextran or sucrase are used at the dose of 5000 μg.
The beta TGF biological activity is measured as described above after a dilution of 50 times and by using CCL64 cells.

complement system = assay: anticomplement activity (CH50); conditions: measured according to Mauzac et al.
trypsin = trypsin enzymatic activity on substrate S.87
Experimental: The enzymatic activity of trypsin was measured by spectrophotometric absorption of the transformation product of S 87 in versus of the incubation time.

EDL muscles [4] = test system: EDL muscles
Experimental: The experiment was conducted on seven Wistar rats aged two and a half months and weighing three hundred grams.
After annesthesia by ether, the EDL muscles (muscles of hind rat paws) were removed from the forefoot and mechanically damaged by applying a constant pressure on the entire length of the muscle, using a Pean forceps. The pressure was maintained for fifteen seconds, the forceps being closed at the second notch. The homogeneity of the lesion on the whole of the muscle was controlled by following its infarction for 30 seconds. The muscle was then put back in position and the skin sutured by linen thread.
The regeneration controls were injected with the same quantity of PBS alone. Depending on the experiments, injection took place before or after the lesion of the muscle. The 200 μl were injected in one minute and the product's diffusion was ensured by leaving the muscle for two minutes before putting it back in the forefoot.
The treated muscles and the controls were collected after 8 days of regeneration and then immediately frozen at -150° C. in isopentane. Frozen transverse sections of 10 μm thickness were made in the median region of the muscle. The dried sections were colored by Gomori trichrome.
The morphometric analysis of the number of fibers and of their diameter was performed on micrographic montages corresponding to a transverse half-section of muscle.

[5] = 10 μg/ml mesoglycan or 20 μg/ml heparin, CCL39 cells
[6] = beta TGF 50 ng + polymer 5000 μg + trypsin 500 μg
[7] = beta TGF 50 ng + polymer 5000 μg, no trypsin
[8] = single injection of 200 μl of 50 μ/ml, after 8 days of regeneration

T1 sequence (P01137 279-390 limits assumed): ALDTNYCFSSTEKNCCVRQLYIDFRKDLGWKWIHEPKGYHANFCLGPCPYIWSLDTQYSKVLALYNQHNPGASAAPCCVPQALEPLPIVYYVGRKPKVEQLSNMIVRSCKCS

Molecule: heparin
- PROTECTION (in %) of the FGF (FGF): 100%
- Ratio regenerated/ contralateral intact (muscle weight) (EDL muscles [1]): 0.590
- % ratio treated/ ratio degenerated (EDL muscles [1]): 86%
- muscular repair and regeneration (in words) (EDL muscles [1]; rat, in vivo): neither heparin nor dextran sulfate present properties on muscular regeneration
- anticoagulant activity (coagulation): 175 IU/mg
- protective effect against thermal degradation of FGF2 (in words) (FGF2): protective effect
- protective effect against thermal degradation of FGF1 (in words) (FGF1): protective effect
- Leukocytic elastase IC50 (leukocytic elastase [2]): 1800 ng/mL
- ED50 of FGF 2 in the presence of the polymer (FGF 2; [5]): 0.2 ng/mL
- potentialization of the biological activity of FGF2 (in words) (FGF 2; 20 μg of heparin, 10 μg of mesoglycan or 10 μg of sulodexide, FIG. 2B): potentialization of the biological activity
- protective effect against proteolytic degradation of 125I-FGF1 (in words) (125I-FGF1): protective effect
- Ki (leukocytic elastase [3]): ~1 nM
- protective effect against proteolytic degradation of 125I-FGF2 (in words) (125I-FGF2): protective effect
- ED50 of FGF 1 in the presence of the polymer (FGF 1; [5]): 0.4 ng/mL
- potentialization of the biological activity of FGF1 (in words) (FGF 1; 20 μg of heparin, 10 μg of mesoglycan or 10 μg of sulodexide, FIG. 2A): potentialization of the biological activity
- protection of the beta TGF against proteolysis induced by trypsin (in words) (beta TGF): neither sucrase, nor heparin nor dextran sulfate protect the beta TGF
- biological activity of the beta TGF still present (beta TGF; after 10 min of incubation at 37° C. with trypsin): less than 20%
- % inhibiting activity of the incorporation of tritiated thymidine in CCL64 cells (beta TGF; [6]): 10%
- % inhibiting activity of the incorporation of tritiated thymidine in CCL64 cells (beta TGF; [7]): 100%
- % inhibiting activity of the incorporation of tritiated thymidine in CCL64 cells (beta TGF; polymer 5000 μg alone, no beta TGF, no trypsin): 0%

Molecule: O=S(=O)(O)OC[C@H]1O[C@@](COS(=O)(=O)O)(O[C@H]2O[C@H](COS(=O)(=O)O)[C@@H](OS(=O)(=O)O)[C@H](OS(=O)(=O)O)[C@H]2OS(=O)(=O)O)[C@@H](OS(=O)(=O)O)[C@@H]1OS(=O)(=O)O [sucrase, sucrose octasulfate]
- Ratio regenerated/ contralateral intact (muscle weight) (EDL muscles [1]): 0.620
- % ratio treated/ ratio degenerated (EDL muscles [1]): 87%
- protection of the beta TGF against proteolysis induced by trypsin (in words) (beta TGF): neither sucrase, nor heparin nor dextran sulfate protect the beta TGF

Molecule: FGF 1: FGF 1 recombinant form growth factor
- ED50 of FGF 1 (FGF 1; FGF 1 alone, CCL39 cells): 5 ng/mL

Molecule: FGF 2: FGF 2 recombinant form growth factor
- ED50 of FGF 2 (FGF 2; FGF 2 alone, CCL39 cells): 3 ng/mL

Molecule: dextran
- Protection of the beta TGF (beta TGF biological activity) (beta TGF; [6]): 0%
- Protection of the beta TGF (beta TGF biological activity) (beta TGF; [7]): 100%

Molecule: carboxymethyl dextran benzylamide sulfonate [CMDBS]
- anticoagulant activity (coagulation): 4 IU/mg
- anticomplement activity, CH50 (complement system): 1.1 µg
- inhibiting power on the activity of trypsin (in words) (trypsin): no inhibiting power
- trypsin activity (trypsin; Trypsin 10 ug/ml + S87 + 5 ug/ml CMDBS): 100
- trypsin activity (trypsin; Trypsin 10 ug/ml + S87 + 50 ug/ml CMDBS): 100
- trypsin activity (trypsin; Trypsin 10 ug/ml + S87 + 500 ug/ml CMDBS): 100

Molecule: dextran sulfate
- Diameter of muscles (EDL muscles [4]; [8]): 3.9 ± 0.4 mm
- Mean diameter of regenerated fibers (EDL muscles [4]; [8]): 28.2 ± 4.6
- Number of fibers on a half-section (EDL muscles [4]; [8]): 418
- muscular regeneration after crushing, macroscopic and histological findings (in words) (EDL muscles [4]; single injection, 8 days of regeneration): no qualitative or quantitative modification of muscular regeneration; also recorded: neither heparin nor dextran sulfate present properties on muscular regeneration
- protection of the beta TGF against proteolysis induced by trypsin (in words) (beta TGF): neither sucrase, nor heparin nor dextran sulfate protect the beta TGF
- Protection of the beta TGF (beta TGF biological activity) (beta TGF; [6]): 0%
- Protection of the beta TGF (beta TGF biological activity) (beta TGF; [7]): 100%

B1: STBI: trypsin inhibitor originating from soya, from Sigma (protein, UniProt P01070 25-205, looked up)
Trypsin inhibitor A: DFVLDNEGNPLENGGTYYILSDITAFGGIRAAPTGNERCPLTVVQSRNELDKGIGTIISSPYRIRFIAEGHPLSLKFDSFAVIMLCVGIPTEWSVVEDLPEGPAVKIGENKDAMDGWFRLERVSDDEFNNYKLVFCPQQAEDDKCGDIGISIDHDDGTRRLVVSKNKPLVVQFQKLDKESL
- trypsin activity (trypsin; Trypsin + S87 + STBI): 0
